{"source": "paper PMC6105673", "about": "(Nature Communications, 2018)", "key": {"[1]": {"target": "T1, pVHL-elongin B-elongin C (VBC) complex (Homo sapiens, UniProt P40337+Q15369+Q15370)", "T1 construct": "a construct encoding N-terminal GST-tagged pVHL19 (54–213); GST (N, cleaved yes); made in house; host or cells: BL21(DE3) E. coli", "T1 sequence (P40337 54-213)": "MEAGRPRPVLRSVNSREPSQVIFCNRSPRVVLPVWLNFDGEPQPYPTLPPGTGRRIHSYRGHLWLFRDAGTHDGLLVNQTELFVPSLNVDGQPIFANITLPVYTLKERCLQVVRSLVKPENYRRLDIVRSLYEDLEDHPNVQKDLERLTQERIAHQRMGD", "T1 sequence (Q15370 whole entry partner)": "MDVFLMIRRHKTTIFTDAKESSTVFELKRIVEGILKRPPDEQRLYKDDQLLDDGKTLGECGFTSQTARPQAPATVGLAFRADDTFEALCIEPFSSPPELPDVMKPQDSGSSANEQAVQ", "T1 sequence (Q15369 17-112 partner limits assumed)": "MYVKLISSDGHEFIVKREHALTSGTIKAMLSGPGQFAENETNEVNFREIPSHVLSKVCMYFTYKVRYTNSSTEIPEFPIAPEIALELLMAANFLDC", "test": "Steady-state ELISA of VBC complex binding to immobilized biotinylated HIF-2α peptides", "details": "peptides (523–541) on streptavidin plate; VBC 1, 5 and 25 μg/mL; anti-elongin B antibody; three independent experiments in duplicate", "experimental": "(§1) Fig. 4 Affinity of HIF-2α mutants for pVHL is correlated with disease phenotype. a Biotinylated HIF-2α peptides (523–541) were immobilized on a streptavidin-coated 96-well plate. Binding to various concentrations of pVHL-elongin B-elongin C (VBC) complex was assayed via ELISA with an anti-eloB antibody. Absorbance was read at 450 nm. Values represent mean of three independent experiments performed in duplicate ± SEM. *p < 0.05; **p < 0.01. b Biotinylated HIF-2αOH peptides (523–541) were immobilized on streptavidin- agarose beads and incubated with in vitro transcribed and translated (IVTT) pVHL. Streptavidin beads were pulled down (PD) and levels of HA-tagged pVHL were visualized via immmunoblotting (IB). c, d Biolayer interferometry kinetic analysis of VBC complex binding to biotinylated HIF-2α peptides (523–541). c Biotinylated peptides were coupled to streptavidin- coated biosensors and monitored for binding to VBC complex at the indicated concentrations. The data were analyzed based on a 1:1 binding model using the BLItz Pro software with the fitted curves shown as gray lines. […]\nA 96-well streptavidin-coated plate (Quidel) was hydrated with ~200 μL of buffer A per well. […] Following the final wash step, the plates were developed according to manufacturer’s recommendations with ready-to-use TMB1 reagent (Thermo-fisher, Cat. No. 34028) for 20 min before being quenched with 2 N H2SO4. […]"}, "[2]": {"target": "T1, pVHL-elongin B-elongin C (VBC) complex", "test": "Biolayer interferometry kinetic analysis of VBC complex binding to biotinylated HIF-2α peptides", "details": "BLItz biolayer interferometry, peptide (523–541) immobilized, purified VBC, global 1:1 model; mean of three experiments ± SEM", "experimental": "Absorbance was read at 450 nm. […] The data were analyzed based on a 1:1 binding model using the BLItz Pro software with the fitted curves shown as gray lines. […] Values represent mean of three experiments conducted with independently purified protein ± SEM. * denotes uncharacterized band\nMultiple concentrations of purified VBC complex were diluted in kinetics buffer and allowed to associate with immobilized peptide over 120 s. Subsequently, the SA-BLI probe was immersed into kinetics buffer for 120 s to allow for dissociation. The data were analyzed, step corrected, reference corrected, and fit to a global 1:1 binding model. Kd, ka, and kd were calculated using the BLItz Pro software."}, "pVHL": {"tested_on": "pVHL", "test": "In vitro pVHL-HIF-2α binding assay (streptavidin pull-down with IVTT HA-VHL30)", "details": "synthetically hydroxylated biotinylated peptides on streptavidin-agarose, IVTT HA-VHL30, 2 h at 4 °C, stringent and mild buffer", "experimental": "as §1\nThe in vitro pVHL-HIF-2α binding assay was performed according to a previously published protocol. […] Protein levels of HA-VHL30 were determined by western blotting. […]"}}, "note": "Non-standard residues stand in square brackets, D forms with d. *: point of attachment. Biotin = O=C1N[C@H]2[C@H](CS[C@H]2CCCCC(=O)*)N1; Hyp = O=C(O)[C@@H]1C[C@@H](O)CN1"}
{"compound": "CC[C@H](C)[C@H](NC(=O)[C@H](Cc1ccc(O)cc1)NC(=O)[C@@H]1C[C@@H](O)CN1C(=O)[C@H](C)NC(=O)[C@@H]1CCCN1C(=O)[C@@H](NC(=O)[C@H](CCC(=O)O)NC(=O)[C@H](CC(C)C)NC(=O)[C@H](CC(=O)O)NC(=O)[C@H](CC(C)C)NC(=O)[C@H](CCC(=O)O)NC(=O)CCCC[C@@H]1SC[C@@H]2NC(=O)N[C@@H]21)[C@@H](C)O)C(=O)N1CCC[C@H]1C(=O)N[C@@H](CCSC)C(=O)N[C@@H](CC(=O)O)C(=O)NCC(=O)N[C@@H](CCC(=O)O)C(=O)N[C@@H](CC(=O)O)C(=O)N[C@@H](Cc1ccccc1)C(=O)N[C@@H](CCC(N)=O)C(N)=O", "note": "[HIF-2αOH (L529P)]", "values": [{"measurement": "binding to VBC by ELISA (absorbance at 450 nm, in words)", "setting": "[1]", "result": "does not have a statistically significant effect"}, {"measurement": "ka (association rate)", "setting": "[2]", "result": "4.0 ± 0.4 x10^4 Ms^−1"}]}
{"compound": "HIF-2αOH L542 peptide: synthetically P531-hydroxylated HIF-2α peptide (523–542), presumably carrying L542P (Biotin-ELDLETLA[Hyp]YIPMDGEDFQP-NH2; SMILES CC[C@H](C)[C@H](NC(=O)[C@H](Cc1ccc(O)cc1)NC(=O)[C@@H]1C[C@@H](O)CN1C(=O)[C@H](C)NC(=O)[C@H](CC(C)C)NC(=O)[C@@H](NC(=O)[C@H](CCC(=O)O)NC(=O)[C@H](CC(C)C)NC(=O)[C@H](CC(=O)O)NC(=O)[C@H](CC(C)C)NC(=O)[C@H](CCC(=O)O)NC(=O)CCCC[C@@H]1SC[C@@H]2NC(=O)N[C@@H]21)[C@@H](C)O)C(=O)N1CCC[C@H]1C(=O)N[C@@H](CCSC)C(=O)N[C@@H](CC(=O)O)C(=O)NCC(=O)N[C@@H](CCC(=O)O)C(=O)N[C@@H](CC(=O)O)C(=O)N[C@@H](Cc1ccccc1)C(=O)N[C@@H](CCC(N)=O)C(=O)N1CCC[C@H]1C(N)=O)", "values": [{"measurement": "binding of IVTT pVHL in pull-down (immunoblot, in words)", "setting": "pVHL", "result": "rescued binding to pVHL"}]}
